Measurements reported in ChEMBL document CHEMBL3425432, “Azide-alkyne cycloaddition-mediated cyclization of phosphonopeptides and their evaluation as PTP1B binders and enrichment tools” (Bioorg Med Chem, 2015).
Calls of active or inactive are those of the source. No cut-off for these calls is given here. *1 amine or outer side, *2 acyl side, *3 side chain or, on linkers, in order; H or OH if unused. Where a SMILES comes first, the peptide text is derived from it. [ ]: non-standard residue; d: D form. The star is where a group is joined. F2Pmp = N[C@@H](Cc1ccc(C(F)(F)P(=O)(O)O)cc1)C(=O)O; Biotin = O=C1N[C@H]2[C@H](CS[C@H]2CCCCC(=O)*)N1; X1 = [N-]=[N+]=N[C@@H](CCCCN[*:1])C(=O)[*:2]; pY = N[C@@H](Cc1ccc(OP(=O)(O)O)cc1)C(=O)O; Hexanoyl(6-N3) = [N-]=[N+]=NCCCCCC(=O)*; Pra = C#CC[C@H](N)C(=O)O

Key:
[1] = Retention time of the compound by HPLC method; format: physicochemical
[2] = target: T1, Tyrosine-protein phosphatase non-receptor type 1 (Homo sapiens) (UniProt P18031); test: Binding affinity to PTP1B in human U2OS cells by SDS-PAGE based pull-down assay; format: cell-based
T1 sequence (whole entry): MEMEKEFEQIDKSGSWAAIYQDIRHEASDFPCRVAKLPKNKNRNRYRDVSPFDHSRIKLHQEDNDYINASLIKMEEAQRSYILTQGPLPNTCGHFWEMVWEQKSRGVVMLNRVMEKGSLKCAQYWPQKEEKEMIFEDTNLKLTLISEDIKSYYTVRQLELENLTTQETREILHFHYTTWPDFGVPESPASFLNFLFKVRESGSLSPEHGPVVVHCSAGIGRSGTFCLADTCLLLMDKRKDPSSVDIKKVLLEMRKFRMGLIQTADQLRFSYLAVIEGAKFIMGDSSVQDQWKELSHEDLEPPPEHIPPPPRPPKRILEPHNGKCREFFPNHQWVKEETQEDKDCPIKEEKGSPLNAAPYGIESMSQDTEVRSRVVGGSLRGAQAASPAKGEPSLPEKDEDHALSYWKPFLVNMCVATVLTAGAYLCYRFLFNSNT

[3] = target: Receptor-type tyrosine-protein phosphatase alpha (Homo sapiens) (UniProt P18433); test: Binding affinity to PTPalpha in human MCF7 cells by SDS-PAGE based pull-down assay; format: cell-based
[4] = target: T2, Tyrosine-protein phosphatase non-receptor type 2 (Homo sapiens) (UniProt P17706); test: Binding affinity to TCPTP in human MCF7 cells by SDS-PAGE based pull-down assay; format: cell-based
T2 sequence (whole entry): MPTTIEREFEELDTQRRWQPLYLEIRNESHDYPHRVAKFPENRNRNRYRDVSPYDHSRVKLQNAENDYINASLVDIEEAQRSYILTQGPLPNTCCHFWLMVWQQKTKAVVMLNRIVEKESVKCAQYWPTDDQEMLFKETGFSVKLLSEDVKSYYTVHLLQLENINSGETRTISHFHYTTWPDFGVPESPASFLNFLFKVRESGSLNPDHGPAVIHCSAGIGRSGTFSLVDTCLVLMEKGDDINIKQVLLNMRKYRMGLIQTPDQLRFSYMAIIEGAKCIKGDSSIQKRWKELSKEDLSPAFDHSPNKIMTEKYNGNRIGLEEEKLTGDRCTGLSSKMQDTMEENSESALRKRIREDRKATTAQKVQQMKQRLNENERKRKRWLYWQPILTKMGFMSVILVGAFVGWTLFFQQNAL

[5] = target: Proto-oncogene tyrosine-protein kinase Src (Homo sapiens) (UniProt P12931); test: Binding affinity to c-Src in human MCF7 cells by SDS-PAGE based pull-down assay; format: cell-based
[6] = target: T1, Tyrosine-protein phosphatase non-receptor type 1 (Homo sapiens); test: Binding affinity to PTP1B in human MCF7 cells by SDS-PAGE based pull-down assay; format: cell-based

Chain of Proto-oncogene tyrosine-protein kinase Src (Homo sapiens) (P12931 2-536 limits assumed): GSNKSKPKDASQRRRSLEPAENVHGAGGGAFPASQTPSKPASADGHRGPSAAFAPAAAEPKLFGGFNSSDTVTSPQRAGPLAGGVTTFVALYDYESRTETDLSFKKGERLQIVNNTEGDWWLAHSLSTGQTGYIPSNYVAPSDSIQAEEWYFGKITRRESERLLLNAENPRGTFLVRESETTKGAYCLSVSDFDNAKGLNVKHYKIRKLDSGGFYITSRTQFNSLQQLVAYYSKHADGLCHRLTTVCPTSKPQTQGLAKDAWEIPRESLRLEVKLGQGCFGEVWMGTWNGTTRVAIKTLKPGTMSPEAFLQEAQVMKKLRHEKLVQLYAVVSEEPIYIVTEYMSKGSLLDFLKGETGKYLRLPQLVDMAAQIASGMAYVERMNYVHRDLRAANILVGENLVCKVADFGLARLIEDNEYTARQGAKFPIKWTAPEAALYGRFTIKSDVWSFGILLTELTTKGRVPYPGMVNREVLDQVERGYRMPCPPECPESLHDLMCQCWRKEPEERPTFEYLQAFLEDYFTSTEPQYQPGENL
Chain of Receptor-type tyrosine-protein phosphatase alpha (Homo sapiens) (P18433 20-802 limits assumed): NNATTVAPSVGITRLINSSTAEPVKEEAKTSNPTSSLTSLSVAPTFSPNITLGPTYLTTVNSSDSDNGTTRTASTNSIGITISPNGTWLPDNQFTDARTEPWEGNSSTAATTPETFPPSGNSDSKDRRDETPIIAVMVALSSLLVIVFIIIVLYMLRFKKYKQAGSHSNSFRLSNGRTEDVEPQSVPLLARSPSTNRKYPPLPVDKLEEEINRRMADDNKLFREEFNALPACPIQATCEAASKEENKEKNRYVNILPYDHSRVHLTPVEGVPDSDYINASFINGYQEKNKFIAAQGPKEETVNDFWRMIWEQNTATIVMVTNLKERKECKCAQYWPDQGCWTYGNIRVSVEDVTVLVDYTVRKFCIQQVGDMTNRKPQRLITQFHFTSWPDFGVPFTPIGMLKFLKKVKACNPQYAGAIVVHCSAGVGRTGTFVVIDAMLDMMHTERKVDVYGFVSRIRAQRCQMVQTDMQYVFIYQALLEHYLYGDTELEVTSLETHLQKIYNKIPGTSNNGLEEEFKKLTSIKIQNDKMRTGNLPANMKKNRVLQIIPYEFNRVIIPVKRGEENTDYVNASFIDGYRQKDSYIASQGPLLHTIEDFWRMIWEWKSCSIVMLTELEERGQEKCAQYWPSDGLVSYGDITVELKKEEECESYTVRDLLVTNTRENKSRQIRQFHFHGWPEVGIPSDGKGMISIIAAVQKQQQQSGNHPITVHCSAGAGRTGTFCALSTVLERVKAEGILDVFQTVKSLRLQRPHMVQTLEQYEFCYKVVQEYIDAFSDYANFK

| Activity [3] | Activity [4] | Activity [5] | Activity [6] | Structure (SMILES) | Retention_time [1] | Activity [2] |
| --- | --- | --- | --- | --- | --- | --- |
|  |  |  |  | NC(=O)CC[C@@H]1NC(=O)[C@@H]2CCCN2C(=O)[C@H](CCC(=O)O)NC(=O)[C@@H](CCCCNC(=O)CCCC[C@@H]2SC[C@@H]3NC(=O)N[C@@H]32)NC(=O)CCCCCn2cc(nn2)C[C@H](C(N)=O)NC(=O)[C@H](CC(N)=O)NC(=O)[C@H](CCC(=O)O)NC(=O)CNC(=O)[C@@H]2CCCN2C(=O)[C@H](CCC(N)=O)NC(=O)[C@H](Cc2ccc(O)cc2)NC1=O | 8.5 min | inactive |
| inactive | inactive | inactive | inactive | CC(=O)N[C@@H](CCCCNC(=O)CCCC[C@@H]1SC[C@@H]2NC(=O)N[C@@H]21)C(=O)N[C@@H](CCC(=O)O)C(=O)N1CCC[C@H]1C(=O)N[C@@H](CCC(N)=O)C(=O)N[C@@H](Cc1ccc(OP(=O)(O)O)cc1)C(=O)N[C@@H](CCC(N)=O)C(=O)N1CCC[C@H]1C(=O)NCC(=O)N[C@@H](CCC(=O)O)C(=O)N[C@@H](CC(N)=O)C(=O)N[C@@H](CC(C)C)C(N)=O (Ac-K(Biotin)EPQ[pY]QPGENL-NH2) | 6.6 min |  |
|  |  |  |  | CC(=O)N[C@@H](CCCCNC(=O)CCCC[C@@H]1SC[C@@H]2NC(=O)N[C@@H]21)C(=O)N[C@@H](CCC(=O)O)C(=O)N1CCC[C@H]1C(=O)N[C@@H](CCC(N)=O)C(=O)N[C@@H](Cc1ccc(C(F)(F)P(=O)(O)O)cc1)C(=O)N[C@@H](CCC(N)=O)C(=O)N1CCC[C@H]1C(=O)NCC(=O)N[C@@H](CCC(=O)O)C(=O)N[C@@H](CC(N)=O)C(=O)N[C@@H](CC(C)C)C(N)=O (Ac-K(Biotin)EPQ[F2Pmp]QPGENL-NH2) | 9.1 min | Active |
|  |  |  |  | NC(=O)CC[C@@H]1NC(=O)[C@@H]2CCCN2C(=O)[C@H](CCC(=O)O)NC(=O)[C@@H](CCCCNC(=O)CCCC[C@@H]2SC[C@@H]3NC(=O)N[C@@H]32)n2cc(nn2)C[C@H](C(N)=O)NC(=O)[C@H](CC(N)=O)NC(=O)[C@H](CCC(=O)O)NC(=O)CNC(=O)[C@@H]2CCCN2C(=O)[C@H](CCC(N)=O)NC(=O)[C@H](Cc2ccc(C(F)(F)P(=O)(O)O)cc2)NC1=O | 7.1 min | Active |
| inactive | inactive | inactive | inactive | NC(=O)CC[C@@H]1NC(=O)[C@@H]2CCCN2C(=O)[C@H](CCC(=O)O)NC(=O)[C@@H](CCCCNC(=O)CCCC[C@@H]2SC[C@@H]3NC(=O)N[C@@H]32)n2cc(nn2)C[C@H](C(N)=O)NC(=O)[C@H](CC(N)=O)NC(=O)[C@H](CCC(=O)O)NC(=O)CNC(=O)[C@@H]2CCCN2C(=O)[C@H](CCC(N)=O)NC(=O)[C@H](Cc2ccc(O)cc2)NC1=O | 9.5 min | inactive |
|  |  |  |  | C#CC[C@H](NC(=O)[C@H](CC(N)=O)NC(=O)[C@H](CCC(=O)O)NC(=O)CNC(=O)[C@@H]1CCCN1C(=O)[C@H](CCC(N)=O)NC(=O)[C@H](Cc1ccc(C(F)(F)P(=O)(O)O)cc1)NC(=O)[C@H](CCC(N)=O)NC(=O)[C@@H]1CCCN1C(=O)[C@H](CCC(=O)O)NC(=O)[C@H](CCCCNC(=O)CCCC[C@@H]1SC[C@@H]2NC(=O)N[C@@H]21)N=[N+]=[N-])C(N)=O (Biotin-[X1]EPQ[F2Pmp]QPGEN[Pra]-NH2) | 8.8 min | inactive |
|  |  |  |  | CC(C)C[C@H](NC(=O)[C@H](CC(N)=O)NC(=O)[C@H](CCC(=O)O)NC(=O)CNC(=O)[C@@H]1CCCN1C(=O)[C@H](CCC(N)=O)NC(=O)[C@H](Cc1ccc(C(F)(F)P(=O)(O)O)cc1)NC(=O)[C@H](CCC(N)=O)NC(=O)[C@@H]1CCCN1C(=O)[C@H](CCC(=O)O)NC(=O)CCCC[C@@H]1SC[C@@H]2NC(=O)N[C@@H]21)C(N)=O (Biotin-EPQ[F2Pmp]QPGENL-NH2) | 8 min | inactive |
|  |  |  |  | C#CC[C@H](NC(=O)[C@H](CC(N)=O)NC(=O)[C@H](CCC(=O)O)NC(=O)CNC(=O)[C@@H]1CCCN1C(=O)[C@H](CCC(N)=O)NC(=O)[C@H](Cc1ccc(C(F)(F)P(=O)(O)O)cc1)NC(=O)[C@H](CCC(N)=O)NC(=O)[C@@H]1CCCN1C(=O)[C@H](CCC(=O)O)NC(=O)[C@H](CCCCNC(=O)CCCC[C@@H]1SC[C@@H]2NC(=O)N[C@@H]21)NC(=O)CCCCCN=[N+]=[N-])C(N)=O ({Hexanoyl(6-N3)}-K(Biotin)EPQ[F2Pmp]QPGEN[Pra]-NH2) | 9.5 min | inactive |

| Structure (SMILES) | Activity [3] | Activity [4] | Activity [5] | Activity [6] | Retention_time [1] | Activity [2] |
| --- | --- | --- | --- | --- | --- | --- |
| NC(=O)CC[C@@H]1NC(=O)[C@@H]2CCCN2C(=O)[C@H](CCC(=O)O)NC(=O)[C@@H](CCCCNC(=O)CCCC[C@@H]2SC[C@@H]3NC(=O)N[C@@H]32)NC(=O)CCCCCn2cc(nn2)C[C@H](C(N)=O)NC(=O)[C@H](CC(N)=O)NC(=O)[C@H](CCC(=O)O)NC(=O)CNC(=O)[C@@H]2CCCN2C(=O)[C@H](CCC(N)=O)NC(=O)[C@H](Cc2ccc(C(F)(F)P(=O)(O)O)cc2)NC1=O | inactive | Active | inactive | Active | 7.1 min | Active |
